Assay results: PubChem BioAssay AID449750 (Broad Institute, 2010)
“And” between values parts separate entries of the source, which are not always exact repeats. Identical values can stand only once. The source made the active and inactive calls. The rule behind the calls is not given here.

Assay: non-covalent RecA intein splicing inhibitors, dose response, biochemical, cell-free, fluorescence, secondary screen (AID 449750)

Compound `COc1cc(C(c2c(C)[nH][nH]c2=O)c2c(C)[nH][nH]c2=O)cc([N+](=O)[O-])c1O` has an AC50 of 10.7 µM.

With `Cc1cc(C(=O)Cn2ncc(Cl)c(Cl)c2=O)c(C)n1CC(F)(F)F` the AC50 was > 38 µM (inactive).

With `O=C1C(Cc2ccccc2)Nc2ncnc(N3CCc4ccccc4C3)c2N1Cc1ccc(Cl)cc1` (configuration not stated) the AC50 was > 38 µM (inactive).

For `O=C(O)c1ccc(-n2c(=O)c3ccccc3c3ccccc3c2=O)cc1`, the AC50 was > 38 µM (inactive).

In the case of `Oc1ccc(N=Cc2ccc(OCc3ccccc3)cc2)cc1`, the AC50 is reported as > 38 µM (inactive).

Compound `Cc1c(C#N)c(NC(=O)CCl)n(Cc2ccccc2)c1C` has an AC50 of 7.6 µM.

In the case of `CC1=NNC(=O)C1Cc1c(Cl)cccc1Cl` (configuration not stated), the AC50 is reported as > 38 µM (inactive).

Work on `COc1ccc(CNC(=O)c2c(C)oc3c2C(=O)c2ccccc2C3=O)cc1` yielded an AC50 of 14.3 µM.

`CC(=O)Nc1ccc(NC(=O)CSc2ncc(C(=O)Nc3ccccc3)c(=O)n2C)cc1` showed an AC50 of 1.04 µM.

For `CCCCCCCCCCCCCCCCn1cc[n+](C)c1`, the AC50 was 7.12 µM and 7.27 µM.

For `O=C(c1c[nH]c(C(=O)C(Cl)(Cl)Cl)c1)c1ccccc1Cl`, the AC50 was 24.9 µM.

`O=C(c1c[nH]c(C(=O)C(Cl)(Cl)Cl)c1)c1ccc(F)cc1Cl` gave an AC50 of 30.1 µM.

With `Cc1ccc(-n2nc(C)c3c2OC(N)=C(C#N)C3c2ccc(C)o2)cc1` (configuration not stated) the AC50 was 8.87 µM.

`C#CCOc1ccc(/C=C2/C(=O)N(c3cccc(C(=O)O)c3)N=C2C)cc1OC` showed an AC50 of 2.79 µM.

Compound `COC(=O)CC1(c2cccc3ccccc23)C(=O)c2ccccc2C1=O` has an AC50 of 19.1 µM.

With `Cc1[nH]nc2c1C(c1cccs1)C(C#N)=C(N)O2` (configuration not stated) the AC50 was > 38 µM (inactive).

With `CCOC(=O)C1=C(C)NC(SCc2cc(=O)[nH][nH]2)=C(C#N)C1c1cccs1` (configuration not stated) the AC50 was 4.69 µM.

Work on `N#CC1=C(N)Oc2n[nH]c(-c3cccs3)c2C1c1cccs1` (configuration not stated) yielded an AC50 of 9.22 µM.

For `COc1ccc(N(Cc2cc(=O)[nH]c3ccccc23)C(=O)CCl)cc1`, the AC50 was 8.33 µM.

`Cc1nn(-c2ccccc2)c(Cl)c1/C=C1\SC(=S)N(CCCCCC(=O)O)C1=O` showed an AC50 of 14.8 µM.

With `O=c1[nH]cc(NCCc2ccccc2)c(=O)[nH]1` the AC50 was > 38 µM (inactive).

Compound `O=c1cc(-c2ccc(F)cc2)[nH][nH]1` has an AC50 of 17.2 µM.

In the case of `COc1cc(/C=C2/C(=O)N(c3ccccc3)N=C2C)ccc1OS(=O)(=O)c1ccccc1`, the AC50 is reported as 3.34 µM.

Work on `CC1=NN(c2ccc(F)cc2)C(=O)C1C(c1cccc(O)c1)c1c(C)[nH]n(-c2ccc(F)cc2)c1=O` (configuration not stated) yielded an AC50 of 2.89 µM.

In the case of `CCc1ccccc1N1C(=O)C(Cl)=C(N2CCOCC2)C1=O`, the AC50 is reported as > 38 µM (inactive).

For `O=c1cc(N=Nc2ccc(Cl)cc2)[nH]c(=O)[nH]1`, the AC50 was > 38 µM (inactive).

With `CCn1c(COc2cccc3ccccc23)nnc1SCC(N)=O` the AC50 was > 38 µM (inactive).

Work on `C/C(=C/CCC(C)[C@H]1CC[C@@]2(C)C3=C(CC[C@]12C)[C@@]1(C)CCC(=O)C(C)(C)[C@@H]1CC3)C(=O)O` (some centres not stated) yielded an AC50 of 10.7 µM.

With `CCC(CNc1cc(OC)cc2cccnc12)NC1CCCCC1` (configuration not stated) the AC50 was 6.86 µM.

With `O=C(O)COc1cccc(/C=C2/SC(=S)N(Cc3ccccc3)C2=O)c1` the AC50 was 21.5 µM.

`Cc1cc(O)c(C(C)C)cc1N=Cc1ccccc1O` showed an AC50 of 5.1 µM.

In the case of `CC(C)(C)c1ccc(C(=O)Cn2cnnc2C#N)cc1`, the AC50 is reported as > 38 µM (inactive).

Work on `CCOc1ccc(C(c2c(C)[nH][nH]c2=O)c2c(C)[nH][nH]c2=O)cc1OC` yielded an AC50 of 6.7 µM.

`Nc1ccc(N)c(C(=O)O)c1` showed an AC50 of 21 µM.

For `C/C(CC(=O)Nc1ccc(Cl)cn1)=N\NC(=O)Cc1cccs1`, the AC50 was > 38 µM (inactive).

With `Cc1nnc(N/N=C\c2ccc(-c3ccccc3[N+](=O)[O-])o2)n1N` the AC50 was > 38 µM (inactive).

For `O=c1[nH]c(Nc2ccccn2)cc2ccccc12`, the AC50 was > 38 µM (inactive).

For `Cn1ncnc2c(=O)n(C)c(=O)nc1-2`, the AC50 was 0.0837 µM.

With `O=C(c1cccc(C(F)(F)F)c1)C1CCCN(Cc2ncc[nH]2)C1` (configuration not stated) the AC50 was > 38 µM (inactive).

`O=Cc1ccc(Sc2nnc(-c3ccccc3)o2)c([N+](=O)[O-])c1` showed an AC50 of 21 µM.

Compound `Cc1cc(C(c2ccc(O)cc2)c2cc(C)c(O)cc2C)c(C)cc1O` has an AC50 of 4.95 µM.

Compound `CC(=O)Oc1ccc2ccccc2c1C(NC(=O)Cc1ccccc1)c1ccc(Cl)cc1` (configuration not stated) has an AC50 of 4.04 µM.

`CC1=NN(c2ccc(C)cc2C)C(=O)C1C(c1cccc(O)c1)C1C(=O)N(c2ccc(C)cc2C)N=C1C` (configuration not stated) showed an AC50 of 3.51 µM.

For `CCOC(=O)CSc1nc2sc3c(c2c(=O)n1C1CCCCC1)CCN(C)C3`, the AC50 was > 38 µM (inactive).

With `COc1ccc(C(=O)N/N=C\c2coc3ccc(Cl)cc3c2=O)cc1` the AC50 was > 38 µM (inactive).

In the case of `COc1ccc(Nc2ccc(OC)cc2)cc1`, the AC50 is reported as > 38 µM (inactive).

With `CN(Cc1ccc(Cl)s1)C(=O)CCl` the AC50 was 19.3 µM.

In the case of `C=CCn1c(-c2cccnc2Cl)nc2ccccc21`, the AC50 is reported as > 38 µM (inactive).

With `CN(C)c1ccc2nsnc2c1[N+](=O)[O-]` the AC50 was > 38 µM (inactive).

With `CCOC(=O)C1CCN(Cc2cc(C(C)C)c(O)c(C(C)C)c2)CC1` the AC50 was > 38 µM (inactive).

In the case of `O=S(=O)(Nc1ccc(-n2cnnn2)cc1)c1ccc(F)c(F)c1F`, the AC50 is reported as > 38 µM (inactive).

With `CC(=O)Oc1ccc(N(C(C)=O)S(=O)(=O)c2ccc3ccccc3c2)cc1Br` the AC50 was 29.5 µM.

Compound `NS(=O)(=O)c1ccc(N=Nc2ccc(=O)[nH]c2O)cc1` has an AC50 of 24.6 µM.

In the case of `COC(=O)c1ccc(NC2=C(Cl)C(=O)OC2OC(=O)c2ccccc2)cc1` (configuration not stated), the AC50 is reported as > 38 µM (inactive).

With `CC(=O)NCCn1c(SCC(=O)NCc2ccco2)nc2ccccc2c1=O` the AC50 was > 38 µM (inactive).

With `CC1=C(C)/C(=N\OS(=O)(=O)c2ccccc2)C=CC1=O` the AC50 was > 38 µM (inactive).

`Cc1[nH]c2ccccc2c1C(C#N)(C#N)C1C(=O)c2ccccc2C1=O` gave an AC50 of 2.58 µM.

In the case of `COc1ccc(C=C(c2nc3ccccc3s2)c2nc3ccccc3s2)cc1O`, the AC50 is reported as 3.04 µM.

With `CCOc1cc(C2C(C#N)=C(N)Oc3n[nH]c(CC)c32)ccc1OCCN1CCOCC1` (configuration not stated) the AC50 was > 38 µM (inactive).

With `CCOc1cc(NC2CS(=O)(=O)CC2O)c(OCC)cc1NC(=O)c1ccccc1` (configuration not stated) the AC50 was > 38 µM (inactive).

In the case of `CC(=O)NC(=S)c1c(N)n(Cc2ccccc2)c(=O)n(C)c1=O`, the AC50 is reported as > 38 µM (inactive).

`O=C(CCl)Nc1sccc1C(=O)c1ccccc1` showed an AC50 of 14 µM.

In the case of `Cc1ccc(C)c(NC(=O)CSc2n[nH]c(-c3ccccn3)n2)c1`, the AC50 is reported as > 38 µM (inactive).

For `O=C(CCCN1C(=O)/C(=C/c2ccccc2)SC1=S)Nc1ccc(C(=O)O)c(O)c1`, the AC50 was 33.8 µM.

Compound `O=C(Cc1cc(=O)[nH][nH]1)N/N=C/c1ccccc1Cl` has an AC50 of 15.8 µM.

In the case of `CCOC(=O)N1CCC2(CC1)C(C#N)=C(N)Oc1n[nH]c(C)c12`, the AC50 is reported as > 38 µM (inactive).

In the case of `CCOc1ccccc1Nc1nnc(Cc2ccccc2Cl)c(=O)[nH]1`, the AC50 is reported as > 38 µM (inactive).

With `CCCCCCCCCCCCCCCC[N+](C)(C)C` the AC50 was 12.1 µM.

For `O=C(CCN1C(=O)/C(=C/c2cccs2)SC1=S)Nc1cccc(O)c1`, the AC50 was > 38 µM (inactive).

Work on `O=C(CCl)NCc1c(Cl)cccc1-n1cccc1` yielded an AC50 of 7.58 µM.

For `Cc1[nH][nH]c(=O)c1[C@@H](c1ccccc1[N+](=O)[O-])C(C#N)C#N`, the AC50 was > 38 µM (inactive).

`CC1=NNC(=O)/C1=C\c1cn(-c2ccccc2)nc1-c1cccs1` showed an AC50 of 9.64 µM.

`CCCCC[C@H](O)/C=C/[C@@H]1[C@@H](C/C=C\CCCC(=O)OC)[C@@H](O)C[C@H]1O` gave an AC50 of 36.5 µM.

`CS(=O)(=O)c1nc([N+](=O)[O-])nn1CCCc1ccccc1` gave an AC50 of 10.7 µM.

For `N#Cc1c(N2CCCCC2)nc(N)c2c(N)nc(SCC(=O)O)cc12`, the AC50 was > 38 µM (inactive).

For `N=c1c2c(ncn1Cc1ccco1)Oc1ccc3ccccc3c1C2c1ccccc1` (configuration not stated), the AC50 was 13.1 µM.

With `CCCCOC(=O)CNc1nnc(SCC(=O)OCC)[nH]c1=O` the AC50 was > 38 µM (inactive).
